Measured values: PubChem BioAssay (NCI)
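Cells were grown in 96-well plates and exposed to each compound for 48 hours at five concentrations; endpoints were interpolated linearly between bracketing concentrations, or set to the highest concentration if not reached. TGI: total growth inhibition.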

How the values were obtained:
Test in all cases: NCI-60 cell line screen, 48 h
[1] = system: RXF 393 renal
[2] = system: OVCAR-8 ovarian
[3] = system: OVCAR-4 ovarian
[4] = system: MOLT-4 leukemia
[5] = system: NCI-H23 lung
[6] = system: HCC-2998 colon
[7] = system: SNB-19 CNS
[8] = system: SK-MEL-5 melanoma
[9] = system: SW-620 colon
[10] = system: CCRF-CEM leukemia
[11] = system: HL-60(TB) leukemia
[12] = system: UACC-257 melanoma
[13] = system: LXFL 529 NSCLC
[14] = system: LOX IMVI melanoma
[15] = system: M14 melanoma
[16] = system: SF-539 CNS
[17] = system: RPMI-8226 leukemia
[18] = system: SNB-75 CNS
[19] = system: DMS 273 small cell lung
[20] = system: DMS 114 small cell lung
[21] = system: NCI-H226 lung
[22] = system: IGROV1 ovarian
[23] = system: EKVX NSCLC
[24] = system: CAKI-1 renal
[25] = system: SK-OV-3 ovarian
[26] = system: K-562 leukemia
[27] = system: COLO 205 colon
[28] = system: NCI-H460 lung
[29] = system: TK-10 renal
[30] = system: A549 NSCLC
[31] = system: HT29 colon
[32] = system: OVCAR-3 ovarian
[33] = system: SNB-78 CNS
[34] = system: U251 CNS
[35] = system: NCI-H522 lung
[36] = system: HOP-92 NSCLC
[37] = system: UACC-62 melanoma
[38] = system: DLD-1 colon
[39] = system: KM12 colon
[40] = system: SK-MEL-28 melanoma
[41] = system: ACHN renal
[42] = system: DU-145 prostate
[43] = system: SN12C renal
[44] = system: SF-295 CNS
[45] = system: MDA-MB-231 breast
[46] = system: MDA-N
[47] = system: OVCAR-5 ovarian
[48] = system: UO-31 renal
[49] = system: HOP-62 NSCLC
[50] = system: HS 578T breast
[51] = system: MDA-MB-435
[52] = system: BT-549 breast
[53] = system: MALME-3M melanoma
[54] = system: 786-0 renal
[55] = system: HCT-15 colon
[56] = system: SK-MEL-2 melanoma
[57] = system: T-47D breast
[58] = system: NCI/ADR-RES ovarian
[59] = system: SF-268 CNS
[60] = system: PC-3 prostate
[61] = system: A498 renal
[62] = system: SR leukemia
[63] = system: HCT-116 colon
[64] = system: MCF7 breast

Measured: TGI

CCSc1nc2cccc([N+](=O)[O-])c2n1CC
not listed: [41] | [42] | [43] | [44] | [45] | [46] | [47] | [48] | [49] | [50] | [51] | [52] | [53] | [54] | [55] | [56] | [57] | [58] | [59] | [60] | [61] | [62] | [63] | [64]
> 100 µM: all other assays above

COc1ccc(CC(=O)N2CCC3(C)CC(=O)CC=C23)cc1OC (stereo not drawn)
not listed: [6] | [10] | [12] | [13] | [18] | [19] | [20] | [28] | [29] | [33] | [38]
> 100 µM: all other assays above
